Experimental data taken from PubChem BioAssay AID977621 (Broad Institute, 2014).
Records with an inconclusive call do not appear. Calls of active or inactive are those of the source.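 The calls were made as follows: active = Wild-type ribosome reporter drop at least double the humanized mutant ribosome reporter drop, growth loss under a set limit; inconclusive = no clear call, values can overlap the other calls; inactive = the rest.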

What follows are molecules tested on E. coli wild-type GFP strain growth, fluorescence, 24 h (assay: growth inhibition of wild-type GFP E. coli, dose response, H69 mutant RFP, cherry-pick (AID 977621;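 also: wild-type GFP and H69 mutant RFP strains grown together 50/50 in each well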)). Details: not given.

SMILES | AC50
COc1cccc(NC(=O)C2CCC(CNS(=O)(=O)c3cccc4cccnc34)CC2)c1 (centres undefined) | > 100 µM (inactive)
COC(=O)c1c(C)oc(C)c1S(=O)(=O)Nc1ccc(C(C)C)cc1 | > 100 µM (inactive)
O=C(O)c1ccc(Oc2ccc([N+](=O)[O-])cc2)c([N+](=O)[O-])c1 | > 100 µM (inactive)
CCNC(=O)C1(C)CCCN(Cc2cccc3ccccc23)C1 (centres undefined) | > 100 µM (inactive)
COc1ccc(-c2noc(=O)n2Cc2ccccc2Cl)cc1 | > 100 µM (inactive)
CCOc1ccc(OCC)c(NC(=O)CSc2nc3cccnc3n2C)c1 | > 100 µM (inactive)
O=[N+]([O-])c1cncc([N+](=O)[O-])c1Nc1cccc(O)c1 | > 100 µM (inactive)
Nc1ccc2nc(-c3ccc(Cl)cc3)[nH]c2c1 | > 100 µM (inactive)
COc1cccc(NC(=O)CN(C)CC(=O)Nc2ccc(Br)cc2)c1 | > 100 µM (inactive)
CN(C)C(CNS(=O)(=O)c1cc([N+](=O)[O-])ccc1Cl)c1ccco1 (centres undefined) | > 100 µM (inactive)
O=C1C(c2ccccc2)c2ccccc2N1Cc1ccccc1 (centres undefined) | > 100 µM (inactive)
COc1ccccc1CC(=O)NCCc1c[nH]c2ccccc12 | > 100 µM (inactive)
O=C(Cn1cc(C(=O)c2ccco2)c2ccccc21)Nc1ccccc1F | > 100 µM (inactive)
CCc1ccc2nc(N(CCCN(C)C)C(=O)c3ccc4c(c3)OCCO4)sc2c1 | > 100 µM (inactive)
CN1CCN(C(=O)c2cc3sc4ccccc4c3s2)CC1 | > 100 µM (inactive)
O=C(NCCCN1CCOCC1)c1sc2cc([N+](=O)[O-])ccc2c1Cl | > 100 µM (inactive)
O=C(NCCc1ccccn1)c1cccc(S(=O)(=O)N2CCc3ccccc32)c1 | > 100 µM (inactive)
O=S(=O)(Cc1ccccc1)N1CCCCN2[C@@H](CO)[C@H](c3ccc(C#Cc4ccccc4)cc3)[C@@H]2C1 | > 100 µM (inactive)
CCN(C(=O)COC(=O)c1ccc([N+](=O)[O-])o1)c1cccc2ccccc12 | > 100 µM (inactive)

SMILES | AC50
CC(OC(=O)COc1ccccc1)C(=O)NC1CCCC1 (centres undefined) | > 100 µM (inactive)
C[C@@H]1CN([C@@H](C)CO)C(=O)c2cccc(NC(=O)Nc3ccccc3)c2O[C@@H]1CN(C)S(=O)(=O)c1ccc(Cl)cc1 | > 100 µM (inactive)
Clc1ccc(-c2nc(NCCCN3CCOCC3)c3ccccc3n2)cc1 | > 100 µM (inactive)
C[C@@H]1CN([C@H](C)CO)C(=O)c2cccc(NC(=O)c3ccncc3)c2O[C@@H]1CN(C)S(=O)(=O)c1ccc(Cl)cc1 | > 100 µM (inactive)
O=C(Nc1cccnc1)c1ccc([N+](=O)[O-])o1 | > 100 µM (inactive)
CCOC(=O)c1sc2nc(NC(=O)C(C)(C)C)sc2c1C | > 100 µM (inactive)
Cc1ccc(C2(c3noc(CN(C)Cc4cccnc4)n3)CCCC2)cc1 | > 100 µM (inactive)
Cc1cc(C)c(OCC(=O)OCC(=O)N2CCc3ccccc3C2)c(C)c1 | > 100 µM (inactive)
OCCCc1cn(-c2ccccc2)c2ccccc12 | > 100 µM (inactive)
CC(OC(=O)CCc1c[nH]c2ccccc12)C(=O)c1ccccc1 (centres undefined) | > 100 µM (inactive)
COc1cccc(C(=O)N2C[C@@H]3[C@H](c4ccccc42)[C@H](CO)N3Cc2ccccc2Cl)c1 | > 100 µM (inactive)
Cc1ccc(C(=O)C2CCN(CC(=O)Nc3nc(C)cs3)CC2)cc1 | > 100 µM (inactive)
c1ccc(CNc2ncnc3sccc23)cc1 | > 100 µM (inactive)
O=C(c1cc(COc2ccc(F)cc2F)on1)N1CCCC(c2ccccc2)C1 (centres undefined) | > 100 µM (inactive)
CCN(c1ccccc1)S(=O)(=O)c1ccc(OC)c(OC)c1 | > 100 µM (inactive)
O=C1c2ccccc2C(c2nnnn2Cc2ccccc2)N1CCc1ccc(O)cc1 (centres undefined) | > 100 µM (inactive)
O=C(Cn1c2[n+](c3ccc(C(F)(F)F)cc31)CCCCC2)c1ccc2c(c1)OCCO2 | > 100 µM (inactive)
COc1cc(NC(=O)C(c2ccccc2)c2ccccc2)c(C(=O)O)cc1OC | > 100 µM (inactive)
CS(=O)(=O)NCCSc1cc(C(F)(F)F)nc2ccccc12 | > 100 µM (inactive)

SMILES | AC50
COc1ccccc1-c1cc2nc(NCCc3ccncc3)ccn2n1 | > 100 µM (inactive)
O=C(CCc1ccccc1)Nc1sc2c(c1C(=O)O)CCCC2 | > 100 µM (inactive)
Cc1ccc(NC(=O)c2ccc(CSc3ccccn3)cc2)c(O)c1 | > 100 µM (inactive)
Nc1ccccc1Sc1ccc(C(F)(F)F)cc1[N+](=O)[O-] | > 100 µM (inactive)
O=C(Cn1cnc2ccccc21)c1ccc(Br)cc1 | > 100 µM (inactive)
COc1ccc(-c2csc(NC(=O)c3ccoc3C)n2)cc1 | > 100 µM (inactive)
CC(=O)N1c2c(cc(Br)cc2S(=O)(=O)N2CCCCC2)CC1C (centres undefined) | > 100 µM (inactive)
Cc1ccc2c(c1C)OC(=O)CC2c1ccccc1 (centres undefined) | > 100 µM (inactive)
CCCC(=O)N(CCc1ccc(OC)cc1)Cc1nc2ccccc2c(=O)[nH]1 | > 100 µM (inactive)
O=C(O)c1ccc(-c2noc(-c3cccc(Cl)c3)n2)cc1 | > 100 µM (inactive)
Cc1c(C(=O)N(Cc2ccc(F)cc2)C2CCS(=O)(=O)C2)oc2ccccc12 (centres undefined) | > 100 µM (inactive)
COc1ccccc1NC(=O)CN1CCSc2ccccc21 | > 100 µM (inactive)
Clc1ccccc1C1CC(c2ccccc2)=Nc2ccccc2N1 (centres undefined) | > 100 µM (inactive)
COc1ccccc1C1CCN(Cc2cccc([N+](=O)[O-])c2)CC1 | > 100 µM (inactive)
O=C(NCc1nnnn1-c1ccc(Cl)cc1)c1ccc([N+](=O)[O-])o1 | > 100 µM (inactive)
COc1cc(-c2cc3nc(NCCc4ccncc4)ccn3n2)cc(OC)c1OC | > 100 µM (inactive)
CCOC(=O)Cc1nnc(NC(=O)CSc2nc3ccccc3[nH]2)s1 | > 100 µM (inactive)
Cc1ccccc1CSCC(=O)Nc1ccccc1F | > 100 µM (inactive)

Same assay, conditions: E. coli mixed culture, 24 h; measured here: total growth OD600, test 2

SMILES | AC50 [µM]
COC(=O)c1c(C)oc(C)c1S(=O)(=O)Nc1ccc(C(C)C)cc1 | 51.5
CCNC(=O)C1(C)CCCN(Cc2cccc3ccccc23)C1 (centres undefined) | > 100
CCOc1ccc(OCC)c(NC(=O)CSc2nc3cccnc3n2C)c1 | 36.6
COC(=O)c1cc2ccccc2n1S(=O)(=O)c1ccccc1 | > 100
COc1ccc(OC)c(NC(=O)COC(=O)C2CCN(C(=O)c3ccc(Cl)cc3)CC2)c1 | > 100
Cc1ccsc1C(=O)C1CCCN(Cc2cc(F)ccc2-n2cccn2)C1 (centres undefined) | > 100
O=c1c2ccccc2nc(SCc2ccccc2)n1CC1CCCO1 (centres undefined) | 51.1
CCCn1c(C(C)Nc2nc(-c3ccc(C)cc3)cs2)nc2ccccc21 (centres undefined) | > 100
CCN(c1ccccc1)S(=O)(=O)c1ccc(Cl)c(C(=O)NCc2ccco2)c1 | 33.8
Cc1ccc(S(=O)(=O)N2CCCCC2C(=O)N2CCN(c3ccccc3F)CC2)cc1 (centres undefined) | > 100
O=C(COC(=O)C1CC2C=CC1C2)NCCc1ccccc1 (centres undefined) | > 100
COC(=O)CNC(=O)COC(=O)c1ccc(Cl)nc1 | > 100
CCOC(=O)c1cc(-c2ccc(OC)cc2)n[nH]1 | > 100
CN(CCOc1ccccc1)S(=O)(=O)c1ccccc1C#N | > 100
Cc1ccc(N2C(=S)NC3c4cc(Cl)ccc4OC2(C)C3C(=O)N(C)C)cc1 (centres undefined) | > 100
CSc1nc2ccc(NS(=O)(=O)c3ccc([N+](=O)[O-])cc3)cc2s1 | < 0.6
CC1CCCC(NC(=O)COC(=O)[C@@H]2CC(O)CN2S(=O)(=O)c2ccc3c(c2)OCCO3)C1C (some centres undefined) | > 100
Cc1ccc(NC(=O)C2CCCN(c3ncnc4c3nc3n4CCCCC3)C2)cc1Cl (centres undefined) | > 100
Cc1cc(C(=O)OCC(=O)Nc2cccc(S(N)(=O)=O)c2)c2ccccc2n1 | > 100
COc1ccc(N(CCC(=O)O)S(=O)(=O)c2ccc(C)cc2C)cc1 | > 100

SMILES | AC50 [µM]
CC(OC(=O)COc1ccccc1)C(=O)NC1CCCC1 (centres undefined) | > 100
Cc1nc2ncnn2c(N2CCC(C(=O)NC3CCCC3)CC2)c1Cc1ccccc1 | > 100
C[C@@H]1CN([C@@H](C)CO)C(=O)c2cccc(NC(=O)Nc3ccccc3)c2O[C@@H]1CN(C)S(=O)(=O)c1ccc(Cl)cc1 | 37.7
COc1ccc(-c2cc(C(=O)Nc3ccc(C(N)=O)cc3)c3ccccc3n2)cc1OC | > 100
COc1ccc(CC(=O)Oc2ccc(C)cc2C)cc1 | > 100
CCc1ccc(C(=O)Nc2cccnc2Oc2ccc(Cl)cc2)cc1 | > 100
C[C@@H]1CN([C@H](C)CO)C(=O)c2cccc(NC(=O)c3ccncc3)c2O[C@@H]1CN(C)S(=O)(=O)c1ccc(Cl)cc1 | > 100
CCOC(=O)c1cnc2c(c(C)nn2C)c1Oc1ccc(OC)cc1 | > 100
CCOC(=O)c1sc2nc(NC(=O)C(C)(C)C)sc2c1C | 38.9
O=C(Cc1cccc(NC(=O)C2CCN(C(=O)C3CCCCC3)CC2)c1)Nc1cccc(C(=O)N2CCCC2)c1 | > 100
Cc1cc(C)c(OCC(=O)OCC(=O)N2CCc3ccccc3C2)c(C)c1 | > 100
O=C(c1cnc(Cc2c[nH]c3ccccc23)c(I)c1)N1CCCCC1 | 29.6
Cc1ccc(-c2nc(CN3CCCCC3c3cccc(F)c3)c(C)o2)o1 (centres undefined) | > 100
CC(OC(=O)CCc1c[nH]c2ccccc12)C(=O)c1ccccc1 (centres undefined) | 46.5
COc1cccc(C(=O)N2C[C@@H]3[C@H](c4ccccc42)[C@H](CO)N3Cc2ccccc2Cl)c1 | 48.8
Cc1ccc(C(=O)C2CCN(CC(=O)Nc3nc(C)cs3)CC2)cc1 | 7.66
O=C(c1cc(COc2ccc(F)cc2F)on1)N1CCCC(c2ccccc2)C1 (centres undefined) | 14.5
CCN(c1ccccc1)S(=O)(=O)c1ccc(OC)c(OC)c1 | > 100
CS(=O)(=O)N(CC(=O)N1CCc2ccccc2C1)c1cccc(Br)c1 | > 100
CC(=O)c1c(C)[nH]c(C(=O)Nc2nc(C)cs2)c1C | > 100

SMILES | AC50 [µM]
Cc1ccc(C2NC(c3ccc(C)cc3)C(C)C(=O)C2C)cc1 (centres undefined) | 47.8
CS(=O)(=O)NCCSc1cc(C(F)(F)F)nc2ccccc12 | 30.4
Cc1ccc(NC(=O)c2ccc(CSc3ccccn3)cc2)c(O)c1 | 20.9
COc1ccc(-c2csc(NC(=O)c3ccoc3C)n2)cc1 | 48.8
O=C(CSCc1c(Cl)cccc1Cl)NCc1ccccn1 | > 100
COc1ccc(CN(C)C[C@H]2Oc3ccc(NS(=O)(=O)c4ccc(Cl)cc4)cc3CC(=O)N([C@@H](C)CO)C[C@H]2C)cc1 | > 100
CC1=CC(C)(C)N(C(=O)CSc2nnc(C)s2)c2ccc(C)cc21 | > 100
C[C@@H]1CN([C@@H](C)CO)C(=O)c2cc(NS(=O)(=O)c3ccccc3)ccc2O[C@@H]1CN(C)Cc1ccc(C(=O)Nc2ccccc2N)cc1 | 50.6
CCC(=O)Nc1nc2c(OC)ccc(OC)c2s1 | > 100
COc1cc2cc(C(=O)Nc3ccc4c(c3)OCCO4)[nH]c2cc1OC | > 100
Cc1nn(CC(=O)OCCOc2ccc(Br)cc2)c(C)c1[N+](=O)[O-] | > 100
COc1ccc(CCCc2nc3ccccc3[nH]2)cc1 | > 100
COc1ccc(CNC(=O)Cc2cn(C)c3ccccc23)c(OC)c1 | > 100
CC(=O)Nc1ccc(-c2ccnc3c2CC(C)(C(=O)Nc2ccc4c(c2)OCO4)O3)cc1 (centres undefined) | > 100
COc1ccccc1C1CCN(Cc2cccc([N+](=O)[O-])c2)CC1 | > 100
CCN(CC)C(=O)c1ccc(COc2ccccc2Cl)o1 | > 100
C[C@@H]1CN([C@@H](C)CO)C(=O)c2cc(NC(=O)Nc3cccc4ccccc34)ccc2O[C@@H](C)CCCCO[C@@H]1CN(C)C | > 100
Cc1ccc(C)c(N2CCN(C(=O)CCS(=O)(=O)c3ccc4c(c3)oc(=O)n4C)CC2)c1 | > 100
